# Assay results: patent US12582722B2, “Bifunctional compounds for degrading BTK via ubiquitin proteosome pathway” (NURIX THERAPEUTICS, INC., priority 2019, dated 2026)
# Molecular target: T1, BTK (Homo sapiens, UniProt Q06187)
# T1 construct: endogenous in cells; host or cells: Ramos (ATCC CRL-1596)
# Test: Cellular BTK HTRF Assay (BTK degradation in Ramos cells)
# Format: cell-based
# Conditions: four hours incubation, 37° C., BTK levels relative to DMSO-treated cells
# Protocol: Ramos (CRL-1596) cells were obtained from American Type Culture Collection and were grown in RPMI-1640 media (ATCC, 30-2001) supplemented with 10% heat-inactivated FBS (Corning Premium Fetal Bovine Serum from Fisher, MT35015CV).
# Compounds of the present invention were added to 50,000 Ramos cells in round-bottom 96 well plates with a final DMSO concentration of […] and were incubated at 37° C., 5% CO2 for four hours. BTK levels were determined using Cisbio Total-BTK HTRF ([…] Time-Resolved Fluorescence) kit (63ADK064PEG) according to manufacturer's protocol. Briefly, cells were incubated in 1× supplied lysis buffer for 30 minutes. In an opaque white low volume 96 well plate (Cisbio, 66PL96005), cell lysate was combined with two different specific BTK antibodies, one conjugated with Eu^3+-Cryptate FRET donor and one conjugated with d2 FRET acceptor. Assay controls include wells containing cell lysate with only the Eu^3+-Cryptate FRET donor antibody and wells containing both HTRF antibodies and lysis buffer without cells or control lysate provided by Cisbio. HTRF ratio was calculated as (acceptor signal at 665 nm/donor signal at 620 nm)×10^4. Background HTRF levels were determined from the control well containing the donor, but no acceptor, antibody. Background HTRF levels were subtracted from all samples. Readouts were reported as HTRF levels relative to HTRF levels of DMSO-treated cells. Four-parameter non-linear regressions were performed in GraphPad Prism 7.02 to obtain DC50 values. DC50 values are provided in Table 3, wherein A<7.5 nM, 7.5 nM≤B≤50 nM, and 50 nM<C<500 nM.
# T1 sequence (Q06187 whole entry): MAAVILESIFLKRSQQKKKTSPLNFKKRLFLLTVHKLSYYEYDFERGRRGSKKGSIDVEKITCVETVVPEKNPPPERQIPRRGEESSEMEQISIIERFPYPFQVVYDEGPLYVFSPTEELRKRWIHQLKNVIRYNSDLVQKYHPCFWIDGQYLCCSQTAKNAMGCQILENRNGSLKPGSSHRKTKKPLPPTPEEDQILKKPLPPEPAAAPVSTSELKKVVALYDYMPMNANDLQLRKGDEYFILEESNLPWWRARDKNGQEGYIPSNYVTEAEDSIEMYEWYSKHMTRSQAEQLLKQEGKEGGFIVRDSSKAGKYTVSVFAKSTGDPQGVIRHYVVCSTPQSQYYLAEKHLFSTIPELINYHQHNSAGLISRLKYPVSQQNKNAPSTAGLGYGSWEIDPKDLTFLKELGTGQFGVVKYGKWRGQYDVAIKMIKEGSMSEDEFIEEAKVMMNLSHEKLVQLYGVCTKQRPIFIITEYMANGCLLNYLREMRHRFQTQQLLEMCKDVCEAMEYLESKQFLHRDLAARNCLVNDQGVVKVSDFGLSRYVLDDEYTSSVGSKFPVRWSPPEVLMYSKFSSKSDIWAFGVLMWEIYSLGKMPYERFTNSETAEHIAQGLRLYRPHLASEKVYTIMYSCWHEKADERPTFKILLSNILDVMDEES
row,Structure (SMILES),DC50
1,"CS(=O)(=O)c1ccc(Nc2nc(N3CCC[C@@H](NC(=O)N4CC5(CN(Cc6ccc7c(c6)C(=O)N(C6CCC(=O)NC6=O)C7=O)C5)C4)C3)cnc2C(N)=O)cc1 (stereo partly drawn) [Compound 25, N-[(3R)-1-{5-carbamoyl-6-[(4-methanesulfonylphenyl)amino]pyrazin-2-yl}piperidin-3-yl]-6-{[2-(2,6-dioxopiperidin-3-yl)-1,3-dioxoisoindol-5-yl]methyl}-2,6-diazaspiro[3.3]heptane-2-carboxamide]",7.5 to 50 nM
2,"CS(=O)(=O)c1ccc(Nc2nc(N3CCC[C@@H](NC(=O)C4CCN(CC5CCN(c6ccc7c(c6)C(=O)N(C6CCC(=O)NC6=O)C7=O)CC5)CC4)C3)cnc2C(N)=O)cc1 (stereo partly drawn) [Compound 20, 5-[(3R)-3-[1-({1-[2-(2,6-dioxopiperidin-3-yl)-1,3-dioxoisoindol-5-yl]piperidin-4-yl}methyl)piperidine-4-amido]piperidin-1-yl]-3-[(4-methanesulfonylphenyl)amino]pyrazine-2-carboxamide]",< 7.5 nM
3,"CS(=O)(=O)c1ccc(Nc2nc(N3CCC[C@@H](NC(=O)CCCCCCc4cccc5c4CN(C4CCC(=O)NC4=O)C5=O)C3)cnc2C(N)=O)cc1 (stereo partly drawn) [Compound 5, 5-[(3R)-3-{7-[2-(2,6-dioxopiperidin-3-yl)-1-oxo-3H-isoindol-4-yl]heptanamido}piperidin-1-yl]-3-[(4-methanesulfonylphenyl)amino]pyrazine-2-carboxamide]",50 to 500 nM
4,"CS(=O)(=O)c1ccc(Nc2nc(N3CCC[C@@H](NC(=O)CCCCc4ccc5c(c4)C(=O)N(C4CCC(=O)NC4=O)C5)C3)cnc2C(N)=O)cc1 (stereo partly drawn) [Compound 4, 5-[(3R)-3-{5-[2-(2,6-dioxopiperidin-3-yl)-3-oxo-1H-isoindol-5-yl]pentanamido}piperidin-1-yl]-3-[(4-methanesulfonylphenyl)amino]pyrazine-2-carboxamide]",50 to 500 nM
5,"CS(=O)(=O)c1ccc(Nc2nc(N3CCC[C@@H](NC(=O)OCC4CCN(c5ccc6c(c5)C(=O)N(C5CCC(=O)NC5=O)C6=O)CC4)C3)cnc2C(N)=O)cc1 (stereo partly drawn) [Compound 8, (1-(2-(2,6-dioxopiperidin-3-yl)-1,3-dioxoisoindolin-5-yl)piperidin-4-yl)methyl ((R)-1-(5-carbamoyl-6-((4-(methylsulfonyl)phenyl)amino)pyrazin-2-yl)piperidin-3-yl)carbamate]",7.5 to 50 nM
6,"Cc1cc(Nc2nc(N3CCC[C@@H](NC(=O)C4CCN(CC5CN(c6ccc7c(c6)C(=O)N(C6CCC(=O)NC6=O)C7=O)C5)CC4)C3)cnc2C(N)=O)sn1 (stereo partly drawn) [Compound 17, 5-[(3R)-3-[1-({1-[2-(2,6-dioxopiperidin-3-yl)-1,3-dioxoisoindol-5-yl]azetidin-3-yl}methyl)piperidine-4-amido]piperidin-1-yl]-3-[(3-methyl-1,2-thiazol-5-yl)amino]pyrazine-2-carboxamide]",< 7.5 nM
7,"Cc1cc(Nc2nc(N3CCC[C@@H](NC(=O)N4CCC5(CC4)CCN(c4ccc6c(c4)C(=O)N(C4CCC(=O)NC4=O)C6=O)CC5)C3)cnc2C(N)=O)sn1 (stereo partly drawn) [Compound 12, N-[(3R)-1-{5-carbamoyl-6-[(3-methyl-1,2-thiazol-5-yl)amino]pyrazin-2-yl}piperidin-3-yl]-9-[2-(2,6-dioxopiperidin-3-yl)-1,3-dioxoisoindol-5-yl]-3,9-diazaspiro[5.5]undecane-3-carboxamide]",7.5 to 50 nM

# Other lines, results leading:
row,DC50,Structure (SMILES)
1,< 7.5 nM,"CS(=O)(=O)c1ccc(Nc2nc(N3CCC[C@@H](NC(=O)C4CCC5(CC4)CCN(c4ccc6c(c4)C(=O)N(C4CCC(=O)NC4=O)C6=O)CC5)C3)cnc2C(N)=O)cc1 (stereo partly drawn) [Compound 36, N-[(3R)-1-{5-carbamoyl-6-[(4-methanesulfonylphenyl)amino]pyrazin-2-yl}piperidin-3-yl]-3-[2-(2,6-dioxopiperidin-3-yl)-1,3-dioxoisoindol-5-yl]-3-azaspiro[5.5]undecane-9-carboxamide]"
2,7.5 to 50 nM,"CS(=O)(=O)c1ccc(Nc2nc(N3CCC[C@@H](NC(=O)[C@H]4[C@@H]5CN(C6CCN(c7ccc8c(c7)C(=O)N(C7CCC(=O)NC7=O)C8=O)CC6)C[C@@H]54)C3)cnc2C(N)=O)cc1 (stereo partly drawn) [Compound 35, (1R,5S,6r)-N—((R)-1-(5-carbamoyl-6-((4-(methylsulfonyl)phenyl)amino)pyrazin-2-yl)piperidin-3-yl)-3-(1-(2-(2,6-dioxopiperidin-3-yl)-1,3-dioxoisoindolin-5-yl)piperidin-4-yl)-3-azabicyclo[3.1.0]hexane-6-carboxamide]"
3,< 7.5 nM,"CS(=O)(=O)c1ccc(Nc2nc(N3CCC[C@@H](NC(=O)C4CCC5(CC4)CCN(Cc4ccc6c(c4)C(=O)N(C4CCC(=O)NC4=O)C6=O)CC5)C3)cnc2C(N)=O)cc1 (stereo partly drawn) [Compound 31, N—((R)-1-(5-carbamoyl-6-((4-(methylsulfonyl)phenyl)amino)pyrazin-2-yl)piperidin-3-yl)-3-((2-(2,6-dioxopiperidin-3-yl)-1,3-dioxoisoindolin-5-yl)methyl)-3-azaspiro[5.5]undecane-9-carboxamide]"
4,50 to 500 nM,"CS(=O)(=O)c1ccc(Nc2nc(N3CCC[C@@H](NC(=O)CCOCCCc4cccc5c4CN(C4CCC(=O)NC4=O)C5=O)C3)cnc2C(N)=O)cc1 (stereo partly drawn) [Compound 47, 5-[(3R)-3-(3-{3-[2-(2,6-dioxopiperidin-3-yl)-1-oxo-3H-isoindol-4-yl]propoxy}propanamido)piperidin-1-yl]-3-[(4-methanesulfonylphenyl)amino] pyrazine-2-carboxamide]"
5,< 7.5 nM,"Cn1cc(Nc2nc(N3CCC[C@@H](N4CCC5(CCN(CC6CCN(c7ccc8c(c7)C(=O)N(C7CCC(=O)NC7=O)C8=O)CC6)CC5)C4=O)C3)cnc2C(N)=O)cn1 (stereo partly drawn) [Compound 48, 5-[(3R)-3-[8-({1-[2-(2,6-dioxopiperidin-3-yl)-1,3-dioxoisoindol-5-yl]piperidin-4-yl}methyl)-1-oxo-2,8-diazaspiro[4.5]decan-2-yl]piperidin-1-yl]-3-[(1-methylpyrazol-4-yl)amino]pyrazine-2-carboxamide]"
6,50 to 500 nM,"CS(=O)(=O)c1ccc(Nc2nc(N3CCC[C@@H](NC(=O)N4CCN(Cc5ccc6c(c5)C(=O)N(C5CCC(=O)NC5=O)C6=O)CC4)C3)cnc2C(N)=O)cc1 (stereo partly drawn) [Compound 26, 5-((3R)-3-(4-((2-(2,6-dioxopiperidin-3-yl)-1,3-dioxoisoindolin-5-yl)methyl)piperazine-1-carboxamido)piperidin-1-yl)-3-((4-(methylsulfonyl)phenyl)amino)pyrazine-2-carboxamide]"
7,< 7.5 nM,"Cn1cc(Nc2nc(N3CCC[C@@H](N4CCC5(CCN(C6CCN(c7ccc8c(c7)C(=O)N(C7CCC(=O)NC7=O)C8=O)CC6)CC5)C4=O)C3)cnc2C(N)=O)cn1 (stereo partly drawn) [Compound 49, 5-[(3R)-3-(8-{1-[2-(2,6-dioxopiperidin-3-yl)-1,3-dioxoisoindol-5-yl]piperidin-4-yl}-1-oxo-2,8-diazaspiro[4.5]decan-2-yl)piperidin-1-yl]-3-[(1-methylpyrazol-4-yl)amino]pyrazine-2-carboxamide]"
8,50 to 500 nM,"CS(=O)(=O)c1ccc(Nc2nc(N3CCC[C@@H](NC(=O)C4CCN(C5CCN(c6ccc7c(c6)C(=O)N(C6CCC(=O)NC6=O)C7=O)CC5)CC4)C3)cnc2C(N)=O)cc1 (stereo partly drawn) [Compound 40, N—((R)-1-(5-carbamoyl-6-((4-(methylsulfonyl)phenyl)amino)pyrazin-2-yl)piperidin-3-yl)-1′-(2-(2,6-dioxopiperidin-3-yl)-1,3-dioxoisoindolin-5-yl)-[1,4′-bipiperidine]-4-carboxamide]"
